PubChem BioAssay AID2060500 (Molecular Pharmacology Branch, DTP, NCI, 2025)

Tested on: 596521-263-R-J1-PDC complex spheroids, viability % of control
Assay: Anticancer human tumor 596521-263-R-J1-PDC patient-derived soft tissue sarcoma cell line growth inhibition [GQUAD]
Conditions: for IC50: curve of first compound; for viability, T/C: stronger effect = lower value
Procedure, shortened: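 Multi-cell-type spheroids of tumor cells with HUVEC and mesenchymal stem cells, treated with drug combinations. Concentrations descend in half-log steps from near clinical Cmax, or from 10 microM where Cmax is unknown; viability read-out.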

[1] = second compound 0.0316 µM, first compound 0.000999 µM
[2] = second compound 0.0316 µM, first compound 0.00316 µM
[3] = second compound 0.0316 µM, first compound 0.00999 µM
[4] = second compound 0.0316 µM, first compound 0.0316 µM
[5] = second compound 0.0316 µM, first compound 0.0999 µM
[6] = second compound 0.0316 µM, first compound 0.316 µM
[7] = second compound 0.1 µM, first compound 0.000999 µM
[8] = second compound 0.1 µM, first compound 0.00316 µM
[9] = second compound 0.1 µM, first compound 0.00999 µM
[10] = second compound 0.1 µM, first compound 0.0316 µM
[11] = second compound 0.1 µM, first compound 0.0999 µM
[12] = second compound 0.1 µM, first compound 0.316 µM
[13] = second compound 0.316 µM, first compound 0.000999 µM
[14] = second compound 0.316 µM, first compound 0.00316 µM
[15] = second compound 0.316 µM, first compound 0.00999 µM
[16] = second compound 0.316 µM, first compound 0.0316 µM
[17] = second compound 0.316 µM, first compound 0.0999 µM
[18] = second compound 0.316 µM, first compound 0.316 µM
[19] = second compound 1 µM, first compound 0.000999 µM
[20] = second compound 1 µM, first compound 0.00316 µM
[21] = second compound 1 µM, first compound 0.00999 µM
[22] = second compound 1 µM, first compound 0.0316 µM
[23] = second compound 1 µM, first compound 0.0999 µM
[24] = second compound 1 µM, first compound 0.316 µM
[25] = second compound 3.16 µM, first compound 0.000999 µM
[26] = second compound 3.16 µM, first compound 0.00316 µM
[27] = second compound 3.16 µM, first compound 0.00999 µM
[28] = second compound 3.16 µM, first compound 0.0316 µM
[29] = second compound 3.16 µM, first compound 0.0999 µM
[30] = second compound 3.16 µM, first compound 0.316 µM
[31] = second compound 10 µM, first compound 0.000999 µM
[32] = second compound 10 µM, first compound 0.00316 µM
[33] = second compound 10 µM, first compound 0.00999 µM
[34] = second compound 10 µM, first compound 0.0316 µM
[35] = second compound 10 µM, first compound 0.0999 µM
[36] = second compound 10 µM, first compound 0.316 µM
[37] = second compound 0.0316 µM, first compound 0.1 µM
[38] = second compound 0.0316 µM, first compound 1 µM
[39] = second compound 0.0316 µM, first compound 3.16 µM
[40] = second compound 0.0316 µM, first compound 10 µM
[41] = second compound 0.1 µM, first compound 0.1 µM
[42] = second compound 0.1 µM, first compound 1 µM
[43] = second compound 0.1 µM, first compound 3.16 µM
[44] = second compound 0.1 µM, first compound 10 µM
[45] = second compound 0.316 µM, first compound 0.1 µM
[46] = second compound 0.316 µM, first compound 1 µM
[47] = second compound 0.316 µM, first compound 3.16 µM
[48] = second compound 0.316 µM, first compound 10 µM
[49] = second compound 1 µM, first compound 0.1 µM
[50] = second compound 1 µM, first compound 1 µM
[51] = second compound 1 µM, first compound 3.16 µM
[52] = second compound 1 µM, first compound 10 µM
[53] = second compound 3.16 µM, first compound 0.1 µM
[54] = second compound 3.16 µM, first compound 1 µM
[55] = second compound 3.16 µM, first compound 3.16 µM
[56] = second compound 3.16 µM, first compound 10 µM
[57] = second compound 10 µM, first compound 0.1 µM
[58] = second compound 10 µM, first compound 1 µM
[59] = second compound 10 µM, first compound 3.16 µM
[60] = second compound 10 µM, first compound 10 µM
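Note: spheroids exposed to drugs for 7 days before viability reading.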
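Throughout, for viability, T/C: 100% = DMSO vehicle control viability.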

CCc1c2c(nc3ccc(O)cc13)-c1cc3c(c(=O)n1C2)COC(=O)[C@]3(O)CC + Cc1cnc(CNC(=O)c2c(=O)c3ccc(N4CCCN(C)CC4)nc3n3c2sc2ccccc23)cn1
IC50 (second compound 0.0316 µM): 8.62 nM
IC50 (second compound 0.1 µM): 8.15 nM
IC50 (second compound 0.316 µM): 9.24 nM
IC50 (second compound 1 µM): 13.2 nM
IC50 (second compound 3.16 µM): 6.43 nM
IC50 (second compound 10 µM): < 0.999 nM
viability, T/C [1]: 57.6%
viability, T/C [2]: 59.2%
viability, T/C [3]: 44.3%
viability, T/C [4]: 40%
viability, T/C [5]: 17.4%
viability, T/C [6]: 7.92%
viability, T/C [7]: 58.6%
viability, T/C [8]: 56.8%
viability, T/C [9]: 49.3%
viability, T/C [10]: 34.1%
viability, T/C [11]: 21.3%
viability, T/C [12]: 8.98%
viability, T/C [13]: 71.6%
viability, T/C [14]: 55.4%
viability, T/C [15]: 49.9%
viability, T/C [16]: 40.5%
viability, T/C [17]: 21.2%
viability, T/C [18]: 7.27%
viability, T/C [19]: 63.8%
viability, T/C [20]: 61.7%
viability, T/C [21]: 52.6%
viability, T/C [22]: 40.1%
viability, T/C [23]: 24.1%
viability, T/C [24]: 6.45%
viability, T/C [25]: 55.8%
viability, T/C [26]: 55%
viability, T/C [27]: 47.6%
viability, T/C [28]: 37.3%
viability, T/C [29]: 23.2%
viability, T/C [30]: 0.26%
viability, T/C [31]: 47.2%
viability, T/C [32]: 37.1%
viability, T/C [33]: 39.6%
viability, T/C [34]: 32.5%
viability, T/C [35]: 4.57%
viability, T/C [36]: 0.24%

CC(C)n1c(=O)n(C)c2cnc3cc(F)c(-c4ccc(OCCCN5CCCCC5)nc4)cc3c21 + Cc1[nH]c2ccc(F)cc2c1-c1nc2c3cccnc3c3ncccc3c2[nH]1
IC50 (second compound 0.0316 µM): > 10000 nM
IC50 (second compound 0.1 µM): > 10000 nM
IC50 (second compound 0.316 µM): > 10000 nM
IC50 (second compound 1 µM): > 10000 nM
IC50 (second compound 3.16 µM): > 10000 nM
IC50 (second compound 10 µM): > 10000 nM
viability, T/C [4]: 100%
viability, T/C [37]: 82.2%
viability, T/C [6]: 81.5%
viability, T/C [38]: 87.1%
viability, T/C [39]: 80%
viability, T/C [40]: 73.4%
viability, T/C [10]: 95%
viability, T/C [41]: 112%
viability, T/C [12]: 91%
viability, T/C [42]: 93.9%
viability, T/C [43]: 86%
viability, T/C [44]: 64.9%
viability, T/C [16]: 106%
viability, T/C [45]: 102%
viability, T/C [18]: 91.4%
viability, T/C [46]: 83.7%
viability, T/C [47]: 81.9%
viability, T/C [48]: 57.6%
viability, T/C [22]: 85%
viability, T/C [49]: 89%
viability, T/C [24]: 97%
viability, T/C [50]: 89.4%
viability, T/C [51]: 86.8%
viability, T/C [52]: 72.1%
viability, T/C [28]: 87.9%
viability, T/C [53]: 90.3%
viability, T/C [30]: 81.4%
viability, T/C [54]: 76.3%
viability, T/C [55]: 80.6%
viability, T/C [56]: 53%
viability, T/C [34]: 74.4%
viability, T/C [57]: 78.6%
viability, T/C [36]: 79.8%
viability, T/C [58]: 79.1%
viability, T/C [59]: 62.1%
viability, T/C [60]: 50.7%

C#Cc1c(F)ccc2cc(O)cc(-c3ncc4c(N5CC6CCC(C5)N6)nc(OCC56CCCN5CC(F)C6)nc4c3F)c12 (stereo not drawn) + CN(C)c1ccc(Nc2c3ccc(NC(=O)CCN4CCCC4)cc3nc3cc(NC(=O)CCN4CCCC4)ccc23)cc1
IC50 (second compound 0.0316 µM): > 10000 nM
IC50 (second compound 0.1 µM): > 10000 nM
IC50 (second compound 0.316 µM): > 10000 nM
IC50 (second compound 1 µM): > 10000 nM
IC50 (second compound 3.16 µM): > 10000 nM
IC50 (second compound 10 µM): 4150 nM
viability, T/C [4]: 105%
viability, T/C [37]: 95.1%
viability, T/C [6]: 98.7%
viability, T/C [38]: 115%
viability, T/C [39]: 106%
viability, T/C [40]: 99.2%
viability, T/C [10]: 95.5%
viability, T/C [41]: 96.1%
viability, T/C [12]: 107%
viability, T/C [42]: 108%
viability, T/C [43]: 112%
viability, T/C [44]: 92.3%
viability, T/C [16]: 103%
viability, T/C [45]: 106%
viability, T/C [18]: 98.5%
viability, T/C [46]: 97.3%
viability, T/C [47]: 104%
viability, T/C [48]: 83.1%
viability, T/C [22]: 100%
viability, T/C [49]: 111%
viability, T/C [24]: 92.5%
viability, T/C [50]: 88.6%
viability, T/C [51]: 104%
viability, T/C [52]: 96.8%
viability, T/C [28]: 87.4%
viability, T/C [53]: 87.2%
viability, T/C [30]: 98.7%
viability, T/C [54]: 90.5%
viability, T/C [55]: 86.6%
viability, T/C [56]: 78.3%
viability, T/C [34]: 64.6%
viability, T/C [57]: 66%
viability, T/C [36]: 70.7%
viability, T/C [58]: 64.2%
viability, T/C [59]: 54.2%
viability, T/C [60]: 36.8%

CC[C@@]1(O)C(=O)OCc2c1cc1n(c2=O)Cc2cc3c(CN(C)C)c(O)ccc3nc2-1 + Cc1cnc(CNC(=O)c2c(=O)c3ccc(N4CCCN(C)CC4)nc3n3c2sc2ccccc23)cn1
IC50 (second compound 0.0316 µM): > 316 nM
IC50 (second compound 0.1 µM): > 316 nM
IC50 (second compound 0.316 µM): > 316 nM
IC50 (second compound 1 µM): > 316 nM
IC50 (second compound 3.16 µM): > 316 nM
IC50 (second compound 10 µM): < 0.999 nM
viability, T/C [1]: 107%
viability, T/C [2]: 102%
viability, T/C [3]: 78.7%
viability, T/C [4]: 66.5%
viability, T/C [5]: 60.1%
viability, T/C [6]: 60.1%
viability, T/C [7]: 88.9%
viability, T/C [8]: 85%
viability, T/C [9]: 76.5%
viability, T/C [10]: 69.3%
viability, T/C [11]: 57.2%
viability, T/C [12]: 50.9%
viability, T/C [13]: 90.1%
viability, T/C [14]: 86.7%
viability, T/C [15]: 78.3%
viability, T/C [16]: 63%
viability, T/C [17]: 67.1%
viability, T/C [18]: 65.7%
viability, T/C [19]: 70.8%
viability, T/C [20]: 60.2%
viability, T/C [21]: 60.4%
viability, T/C [22]: 63.2%
viability, T/C [23]: 59.3%
viability, T/C [24]: 55.8%
viability, T/C [25]: 54.3%
viability, T/C [26]: 60.7%
viability, T/C [27]: 51.5%
viability, T/C [28]: 54.4%
viability, T/C [29]: 58%
viability, T/C [30]: 56.2%
viability, T/C [31]: 46.5%
viability, T/C [32]: 47.1%
viability, T/C [33]: 49.7%
viability, T/C [34]: 43.7%
viability, T/C [35]: 49.4%
viability, T/C [36]: 49%
